# System: PSA
# Experiment: Screening SSIA by homogeneous PSA immunoassay
# Assay type: biochemical
# Settings: PSA 129 ng/mL (S5) vs zero
# Description: This example presents one method used for testing of candidate compounds for functionality as SSIA in assays of the present disclosure. Testing was conducted in a model screening immunoassay of the protein PSA. Mouse anti-PSA tests were run using a 96-well microtiter plate format. […] The plate was incubated at 37° C. for 10 minutes. A 5 μL aliquot of the test compound (various concentrations) was added to each well. Chemiluminescence was triggered by the addition of 100 μL of a solution of trigger solution A. The chemiluminescent flash was integrated for 5 seconds after the addition of the trigger solution using a Luminoskan Asent® plate luminometer, (Thermo Fischer Scientific, Inc., Waltham, Mass.).
# It is desirable that the improvement factor be at least 2 (S5/S0≧ about 20-30) and more desirable that improvement factor be at least 5 (S5/S0≧ about 50), yet more desirable that S5/S0 be ≧100 in the present screen.
# [1] = test compound final conc. 0.122 mM
# [2] = test compound final conc. 0.244 mM
SMILES,S5/S0 [1],further results
Cc1cc(CO)c(O)c(CO)c1,23,–
COc1cc(C(C)(C)C)c(O)c(C(C)(C)C)c1,19,–
Cc1ccc(O)c(O)c1,142,–
O=C(O)c1ccc(O)c(O)c1,178,–
Oc1cccc(O)c1O,69,–
O=C(O)c1cc(O)c(O)c(O)c1,135,–
COc1ccccc1O,13,–
Oc1ccc([C@@H]2Oc3cc(O)c(O)cc3C[C@@H]2O)cc1O,323,–
O=c1cc(O)c2ccccc2o1,17,–
O=c1ccc2cc(O)c(O)cc2o1,105,–
O=c1c(O)c(-c2ccccc2)oc2ccccc12,13,–
O=c1c(O)c(-c2ccccc2)oc2cc(O)ccc12,14,–
O=c1c(O)c(-c2ccccc2)oc2ccc(O)cc12,9,–
Nc1c(O)cc(S(=O)(=O)O)c2ccccc12,65,–
Oc1c(F)c(F)c(O)c(F)c1F,–,S5/S0 (test compound final conc. 0.014 mM): 50
Nc1cc(Cl)ccc1O,–,S5/S0 [2]: 205

SMILES,S5/S0 [1],further results
Nc1ccc(O)cc1O,–,S5/S0 (test compound final conc. 0.030 mM): 161
O=C(O)c1cc(O)c2ccccc2n1,6,–
c1ccc2c(c1)Cc1ccccc1O2,4,–
O=c1c2ccccc2[nH]c2ccccc12,14,–
O=S(=O)([O-])CCCN1c2ccccc2Sc2ccccc21.[Na+],–,S5/S0 [2]: 50
O=C1C(O)=C(O)C(=O)C(O)=C1O,–,S5/S0 (test compound final conc. 0.061 mM): 51
O=C1C(O)=C(Cl)C(=O)C(O)=C1Cl,–,S5/S0 (test compound final conc. 0.031 mM): 7
Nc1ccccc1B(O)O,108,–
C=CCc1ccc(O)c(OC)c1,–,S5/S0 [2]: 30
O=S(=O)([O-])CCCOCCCN1c2ccccc2Cc2ccccc21.[Na+],–,S5/S0 [2]: 6
Nc1c(O)ccc2ccccc12,63,–
O=C(O)/C=C/c1ccc(O)c(O)c1,116,–
NCCNC(=O)c1ccc(NN)cc1,–,S5/S0 (test compound final conc. 1.22 mM): 138
CC1(C)OC(=O)C(O)=C1O,467,–
CC1=C(O)C(=O)C(C)O1 (stereo not shown),–,S5/S0 (test compound final conc. 1.25 mM): 237
